We go through 17 compounds from PubChem BioAssay AID256 (DTP/NCI, 2004).

For the experiment, the system named is CD2F1 mice, L1210 leukemia ip, survival T/C. The experiment can be described thus: NCI In Vivo Anticancer Drug Screen. Data for tumor model L1210 Leukemia (intraperitoneal) in CD2F1 (CDF1) mice. As to conditions: higher = longer survival. The method in brief: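 Each value reflects a quotient of treated over vehicle control outcomes in mice with a transplanted tumor.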

[1] abbreviates: endpoint: mean survival time, dose: 100.0 mg/kg/injection, schedule: Q04DX003 (ip), vehicle: saline with Tween-80.
[2] abbreviates: endpoint: mean survival time, dose: 200.0 mg/kg/injection, schedule: Q04DX003 (ip), vehicle: saline with Tween-80.
Setting [3] is: endpoint: mean survival time, dose: 400.0 mg/kg/injection, schedule: Q04DX003 (ip), vehicle: saline with Tween-80.
Where [4] appears, read: endpoint: mean survival time, dose: 100.0 mg/kg/injection, schedule: Q01DX001 (ip), vehicle: saline.
The mark [5] stands for this setting: endpoint: mean survival time, dose: 100.0 mg/kg/injection, schedule: Q01DX009 (ip), vehicle: saline.
Where [6] appears, read: endpoint: mean survival time, dose: 100.0 mg/kg/injection, schedule: Q01DX001 (ip), vehicle: saline with Tween-80.
Where [7] appears, read: endpoint: mean survival time, dose: 200.0 mg/kg/injection, schedule: Q01DX001 (ip), vehicle: saline with Tween-80.
[8] abbreviates: endpoint: mean survival time, dose: 400.0 mg/kg/injection, schedule: Q01DX001 (ip), vehicle: saline with Tween-80.
Setting [9] is: endpoint: mean survival time, dose: 50.0 mg/kg/injection, schedule: Q01DX009 (ip), vehicle: saline with Tween-80.
Where [10] appears, read: endpoint: mean survival time, dose: 100.0 mg/kg/injection, schedule: Q01DX009 (ip), vehicle: saline with Tween-80.
[11] abbreviates: endpoint: mean survival time, dose: 200.0 mg/kg/injection, schedule: Q01DX001 (ip), vehicle: saline.
Where [12] appears, read: endpoint: mean survival time, dose: 100.0 mg/kg/injection, schedule: Q01DX009 (ip), vehicle: Klucel (hydroxypropylcellulose) (HPC).

Values joined by “and” are separate entries in the source; they are usually repeats but may differ in a detail not shown here. Equal values may be shown once. Toxic doses and inconclusive results are not listed.

As for `CO[C@@]12[C@@H]3N[C@@H]3CN1C1=C(C(=O)C(NCCc3ccccn3)=C(C)C1=O)[C@@H]2COC(N)=O`, the T/C (endpoint: median survival time, dose: 3.12 mg/kg/injection, schedule: Q01DX001 (ip), vehicle: saline with Tween-80) is 93 % of control; the T/C (endpoint: median survival time, dose: 3.13 mg/kg/injection, schedule: Q01DX005 (ip), vehicle: saline with Tween-80) was 153 % of control; the T/C (endpoint: median survival time, dose: 6.25 mg/kg/injection, schedule: Q01DX001 (ip), vehicle: saline with Tween-80) was 111 % of control; the T/C (endpoint: median survival time, dose: 6.25 mg/kg/injection, schedule: Q01DX005 (ip), vehicle: saline with Tween-80) is 164 % of control; the T/C (endpoint: median survival time, dose: 12.5 mg/kg/injection, schedule: Q01DX001 (ip), vehicle: saline with Tween-80) is 120 % of control; the T/C (endpoint: median survival time, dose: 12.5 mg/kg/injection, schedule: Q01DX005 (ip), vehicle: saline with Tween-80) is 166 % of control. The T/C (endpoint: median survival time, dose: 18.0 mg/kg/injection, schedule: Q01DX001 (ip), vehicle: saline with Tween-80) was 153 % of control; the T/C (endpoint: median survival time, dose: 25.0 mg/kg/injection, schedule: Q01DX005 (ip), vehicle: saline with Tween-80) was 89 % of control; the T/C (endpoint: median survival time, dose: 30.0 mg/kg/injection, schedule: Q01DX001 (ip), vehicle: saline with Tween-80) is 160 % of control; the T/C (endpoint: median survival time, dose: 50.0 mg/kg/injection, schedule: Q01DX001 (ip), vehicle: saline with Tween-80) was 188 % of control and 200 % of control; the T/C (endpoint: median survival time, dose: 83.32 mg/kg/injection, schedule: Q01DX001 (ip), vehicle: saline with Tween-80) is 156 % of control; the T/C (endpoint: median survival time, dose: 3.12 micrograms/kg/injection, schedule: Q01DX001 (ip), vehicle: saline with Tween-80) was 97 % of control. For the same compound, the T/C is, setting by setting: (endpoint: median survival time, dose: 6.25 micrograms/kg/injection, schedule: Q01DX001 (ip), vehicle: saline with Tween-80) 102 % of control; (endpoint: median survival time, dose: 12.5 micrograms/kg/injection, schedule: Q01DX001 (ip), vehicle: saline with Tween-80) 108 % of control; (endpoint: median survival time, dose: 25.0 micrograms/kg/injection, schedule: Q01DX001 (ip), vehicle: saline with Tween-80) 97 % of control; (endpoint: median survival time, dose: 50.0 micrograms/kg/injection, schedule: Q01DX001 (ip), vehicle: saline with Tween-80) 97 % of control; (endpoint: median survival time, dose: 3125.0 micrograms/kg/injection, schedule: Q01DX001 (ip), vehicle: saline with Tween-80) 118 % of control; (endpoint: median survival time, dose: 25000.0 micrograms/kg/injection, schedule: Q01DX001 (ip), vehicle: saline with Tween-80) 153 % of control. The T/C (endpoint: median survival time, dose: 50000.0 micrograms/kg/injection, schedule: Q01DX001 (ip), vehicle: saline with Tween-80) was 322 % of control.
With `OCCNC(=S)SCc1ccccc1`, the T/C reads like this: under setting [1], 94 % of control; under setting [2], 100 % of control; under setting [3], 98 % of control.
Regarding `N#Cc1cn(C2OC(CO)C(O)C2O)n2ccnc12` (configuration not stated), the T/C was 118 % of control (endpoint: median survival time, dose: 12.5 mg/kg/injection, schedule: Q01DX005 (ip), vehicle: water); 102 % of control (endpoint: median survival time, dose: 25.0 mg/kg/injection, schedule: Q01DX005 (ip), vehicle: water); 116 % of control (endpoint: median survival time, dose: 50.0 mg/kg/injection, schedule: Q01DX005 (ip), vehicle: water); 109 % of control (endpoint: median survival time, dose: 100.0 mg/kg/injection, schedule: Q01DX005 (ip), vehicle: water); 115 % of control (endpoint: median survival time, dose: 200.0 mg/kg/injection, schedule: Q01DX005 (ip), vehicle: water).
Take `COC(=O)C1C(=O)CC2N(C)C1C(C)(C)C2(C)C` (configuration not stated): the T/C is, setting by setting: (endpoint: mean survival time, dose: 100.0 mg/kg/injection, schedule: Q04DX002 (ip), vehicle: saline with Tween-80) 115 % of control; (endpoint: mean survival time, dose: 200.0 mg/kg/injection, schedule: Q04DX002 (ip), vehicle: saline with Tween-80) 107 % of control.
For `CC(Cl)(C(Cl)Cl)C(F)(F)F` (configuration not stated), the T/C (endpoint: mean survival time, dose: 25.0 mg/kg/injection, schedule: Q01DX001 (ip), vehicle: saline) was 102 % of control; the T/C (endpoint: mean survival time, dose: 25.0 mg/kg/injection, schedule: Q01DX009 (ip), vehicle: saline) is 98 % of control; the T/C (endpoint: mean survival time, dose: 50.0 mg/kg/injection, schedule: Q01DX001 (ip), vehicle: saline) is 107 % of control; the T/C (endpoint: mean survival time, dose: 50.0 mg/kg/injection, schedule: Q01DX009 (ip), vehicle: saline) was 98 % of control; the T/C under setting [4] was 104 % of control and 108 % of control; the T/C under setting [5] was 98 % of control.
As to `Cc1ccc(-c2csc(/N=C/c3ccccc3O)n2)cc1`, the T/C runs as follows: under setting [6], 89 % of control; under setting [7], 86 % of control; under setting [8], 86 % of control.
On to `COc1ccccc1/C=C/c1ccnc2ccccc12`, for which the T/C was 98 % of control under setting [5]; 95 % of control (endpoint: mean survival time, dose: 200.0 mg/kg/injection, schedule: Q01DX009 (ip), vehicle: saline); 96 % of control (endpoint: mean survival time, dose: 400.0 mg/kg/injection, schedule: Q01DX009 (ip), vehicle: saline).
Consider `CC#CS(=O)(=O)C(C)(C)C`, for which the T/C runs as follows: under setting [9], 100 % of control; under setting [10], 100 % of control; under setting [1], 93 % of control; (endpoint: mean survival time, dose: 200.0 mg/kg/injection, schedule: Q01DX009 (ip), vehicle: saline with Tween-80) 97 % of control; under setting [2], 90 % of control.
With `CC(=O)N/C(=C/c1ccccc1)C(=O)NC(C)(C)C`, the T/C reads like this: under setting [1], 96 % of control; under setting [2], 99 % of control; under setting [3], 89 % of control.
With `Cc1ncc(C=C(C(=O)O)C(=O)O)n1Cc1ccccc1`, the T/C by setting is: under setting [6], 98 % of control; under setting [7], 104 % of control; under setting [8], 104 % of control.
With `O=C(O)C[Se]CC(=O)O`, the T/C under setting [4] was 109 % of control and the T/C under setting [11] is 103 % of control.
On to `O=C(O)c1cnc2cc(Cl)ccc2n1`, for which the T/C reads like this: under setting [9], 103 % of control; under setting [10], 103 % of control; under setting [1], 98 % of control; under setting [2], 100 % of control.
With `O=C(O)Cc1c(Cl)cccc1[N+](=O)[O-]`, the T/C is, setting by setting: (endpoint: mean survival time, dose: 100.0 mg/kg/injection, schedule: Q01DX001 (ip), vehicle: other) 116 % of control; (endpoint: mean survival time, dose: 200.0 mg/kg/injection, schedule: Q01DX001 (ip), vehicle: other) 101 % of control; (endpoint: mean survival time, dose: 400.0 mg/kg/injection, schedule: Q01DX001 (ip), vehicle: other) 104 % of control.
As for `CC1(C)SCNC1C(=O)O` (configuration not stated), the T/C was 96 % of control under setting [4]; 100 % of control under setting [11]; 94 % of control (endpoint: mean survival time, dose: 400.0 mg/kg/injection, schedule: Q01DX001 (ip), vehicle: saline).
As to `CC(=O)ON1C(=O)C2C3C=CC(O3)C2C1=O` (configuration not stated), the T/C is, setting by setting: (endpoint: mean survival time, dose: 12.5 mg/kg/injection, schedule: Q01DX009 (ip), vehicle: water) 100 % of control; (endpoint: mean survival time, dose: 25.0 mg/kg/injection, schedule: Q01DX009 (ip), vehicle: water) 91 % of control; (endpoint: mean survival time, dose: 50.0 mg/kg/injection, schedule: Q01DX009 (ip), vehicle: water) 96 % of control.
Regarding `O=C1C=C(Nc2nc(O)cc(=O)[nH]2)c2ccccc2C1=O`, the T/C under setting [12] is 97 % of control.
For `O=C(CCOP(=O)(N(CCCl)CCCl)N1CC1)OCc1ccccc1` (configuration not stated), the T/C (endpoint: mean survival time, dose: 25.0 mg/kg/injection, schedule: Q01DX009 (ip), vehicle: Klucel (hydroxypropylcellulose) (HPC)) was 97 % of control; the T/C (endpoint: mean survival time, dose: 50.0 mg/kg/injection, schedule: Q01DX009 (ip), vehicle: Klucel (hydroxypropylcellulose) (HPC)) was 94 % of control; the T/C under setting [12] was 97 % of control; the T/C (endpoint: mean survival time, dose: 125.0 mg/kg/injection, schedule: Q01DX001 (ip), vehicle: Klucel (hydroxypropylcellulose) (HPC)) is 98 % of control; the T/C (endpoint: mean survival time, dose: 200.0 mg/kg/injection, schedule: Q01DX009 (ip), vehicle: Klucel (hydroxypropylcellulose) (HPC)) is 97 % of control; the T/C (endpoint: mean survival time, dose: 250.0 mg/kg/injection, schedule: Q01DX001 (ip), vehicle: Klucel (hydroxypropylcellulose) (HPC)) was 107 % of control. For the same compound, the T/C (endpoint: mean survival time, dose: 400.0 mg/kg/injection, schedule: Q01DX009 (ip), vehicle: Klucel (hydroxypropylcellulose) (HPC)) was 107 % of control; the T/C (endpoint: mean survival time, dose: 500.0 mg/kg/injection, schedule: Q01DX001 (ip), vehicle: Klucel (hydroxypropylcellulose) (HPC)) was 103 % of control; the T/C (endpoint: mean survival time, dose: 1000.0 mg/kg/injection, schedule: Q01DX001 (ip), vehicle: Klucel (hydroxypropylcellulose) (HPC)) is 95 % of control.
